Measured values reported in patent publication US11738026B2, “Combination therapy comprising an ALK2 inhibitor and a JAK2 inhibitor” (INCYTE CORPORATION, priority 2019, dated 2023).

Tested on: C57Bl/6 mice
Test: Turpentine-induced anemia in mice on low iron chow; complete blood counts
Type: in vivo
Experimental: C57Bl/6 mice (7-8-week-old, female) were purchased from Charles River Laboratories, Wilmington, Mass., and placed on low iron chow (Test Diet #AIN-76A 5TJK) two weeks prior to beginning study. Mice were continued on this diet through the course of the study. Mice were injected subcutaneously in the intrascapular region of the back of the recipient mouse with sterile filtered turpentine (Aldrich, cat #24245), or sterile saline in a 100 ul volume every week for three weeks. Therapeutic agents were orally administered at a total volume of 10 mL/kg body weight. Mice were administered vehicle (0.5% DMAC: […]) or compound (n=10 per dose group) starting shortly after the first turpentine injection (day 0), and continuing every day until the study termination. Blood was collected via by orbital sinus once weekly, and complete blood counts (CBCs) were determined by hematology instrumentation (Abaxis, model HM5). Statistical analyses were performed using Graphpad Prism software. Mice were handled according to Incyte IACUC protocols.
Together these experiments indicate that ALK2 inhibition can reverse the decreases in RBC counts, hemoglobin, and hematocrit brought on by turpentine generated, inflammation induced anemia, and this anti-anemia efficacy from ALK2 inhibition is possible in the presence of ruxolitinib.

[1] = 30 mg/kg BID, day 21 post first turpentine injection, FIG. 2, change statistically significant by unpaired t-test
[2] = 100 mg/kg QD, 28 days post first turpentine injection, FIG. 1
[3] = mice also dosed with ruxolitinib (90 mg/kg BID), FIG. 2 (Compound A 30 mg/kg BID)

Structure (SMILES) | hematocrit [1] | hemoglobin [1] | red blood cell count [1] | hematocrit [2] | hemoglobin [2] | red blood cell count [2] | anemia brought on by turpentine (100 mg/kg QD, oral, daily from day 0, turpentine s.c. weekly for three weeks) | RBC [3] | hematocrit levels [3] | hemoglobin [3] | anemias brought on by turpentine injection (90 mg/kg BID, oral, in each experiment)
Nc1ncc(-c2ccc([C@@]34C[C@@H]3CN(C3CCOCC3)C4)cc2)cc1C(=O)NC12CCC(O)(CC1)CC2 [Compound A, 2-amino-N-(4-hydroxybicyclo-[2.2.2]octan-1-yl)-5-(4-((1R,5S)-3-(tetrahydro-2H-pyran-4-yl)-3-azabicyclo-[3.1.0]hexan-1-yl)phenyl)nicotinamide] | the same trend was demonstrated | the same trend was demonstrated | the same trend was demonstrated | levels similar to saline (non-turpentine induced anemia) control | levels similar to saline (non-turpentine induced anemia) control | levels similar to saline (non-turpentine induced anemia) control | corrected the anemia brought on by turpentine | significant increases | significant increases | significant increases | 
N#CC[C@H](C1CCCC1)n1cc(-c2ncnc3[nH]ccc23)cn1 [ruxolitinib, (R)-3-(4-(7H-pyrrolo[2,3-d]pyrimidin-4-yl)-1H-pyrazol-1-yl)-3-cyclopentylpropanenitrile, reference compound] |  |  |  |  |  |  |  |  |  |  | exacerbated the anemias
